Data from patent publication US12161756B2, “Pharmaceutical-loaded nanocomposite for treating pulmonary infections” (Imam Abdulrahman Bin Faisal University, priority 2021, dated 2024).

Test system: HFF normal cells (Human foreskin fibroblasts)
Description: Toxicity studies were carried out to evaluate any toxic effect of developed nanoformulations. Cells were treated for 48 h with the following conditions for Zinc-containing nanocomposites: ZnFe2O4/Halloysite, Halloysite, Dexamethasone (Dex), ZnFe2O4/Halloysite/Dex, ZnFe2O4/Halloysite/Dex/PEG, and PEG. Similar protocol was used for nickel-containing nanocomposites. Treatment concentrations were as follows: 0.0375, 0.075, 0.15, and 0.3 mg/mL. In addition, cells were treated with Dex at concentrations to reflect that loaded in the nanocomposite as follows: 0.00181, 0.00362, 0.00725, and 0.01449 mg/mL. […] To choose the optimal dose, cells were exposed to specific doses at different time points. Cells were treated with dose 2 (0.075 mg/mL, see FIG. 9A), dose 3 (0.15 mg/mL, see FIG. 9B), or dose 4 (0.3 mg/mL, see FIG. 9C) for 24, 48, and 72 h.

In the case of `C[C@@H]1C[C@H]2[C@@H]3CCC4=CC(=O)C=C[C@]4(C)[C@@]3(F)[C@@H](O)C[C@]2(C)[C@@]1(O)C(=O)CO` [Dexamethasone, dexamethasone], the toxicity to cells was “induce toxicity” and the “dexamethasone dose found to be less toxic / usable dose” value (human, 48 h) was “up to 0.00362 mg/mL”.
